In patent US20240158418A1 (C4 Therapeutics, Inc., priority 2021, published 2024):
Like-named read-outs stand apart in the source and are kept apart here.

Target: T1, EGFR L858R-T790M (Homo sapiens, UniProt P00533, L858R/T790M)
T1 construct: NCI-H1975 (harboring EGFR heterozygous L858R-T790M mutations); host or cells: NCI-H1975
Assay: EGFR degradation, Total EGFR (L858R-specific) HTRF, NCI-H1975
Assay type: cell-based
Conditions: NCI-H1975 cells, 6 hours, Total EGFR HTRF, read-out: H1975 EGFR DC50
Procedure, shortened: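 FRET signal from HTRF kits measured phospho-EGFR at pY1068 or total EGFR after 6 h treatment at 37 °C. Compounds ran as 11-point half-log dilutions from 10 μM in duplicate, in cells in phenol red-free RPMI with 10% FBS. Concentrations giving 50% inhibition or degradation were reported as IC50 or DC50.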

T1 sequence (P00533 25-1210 T790M/L858R): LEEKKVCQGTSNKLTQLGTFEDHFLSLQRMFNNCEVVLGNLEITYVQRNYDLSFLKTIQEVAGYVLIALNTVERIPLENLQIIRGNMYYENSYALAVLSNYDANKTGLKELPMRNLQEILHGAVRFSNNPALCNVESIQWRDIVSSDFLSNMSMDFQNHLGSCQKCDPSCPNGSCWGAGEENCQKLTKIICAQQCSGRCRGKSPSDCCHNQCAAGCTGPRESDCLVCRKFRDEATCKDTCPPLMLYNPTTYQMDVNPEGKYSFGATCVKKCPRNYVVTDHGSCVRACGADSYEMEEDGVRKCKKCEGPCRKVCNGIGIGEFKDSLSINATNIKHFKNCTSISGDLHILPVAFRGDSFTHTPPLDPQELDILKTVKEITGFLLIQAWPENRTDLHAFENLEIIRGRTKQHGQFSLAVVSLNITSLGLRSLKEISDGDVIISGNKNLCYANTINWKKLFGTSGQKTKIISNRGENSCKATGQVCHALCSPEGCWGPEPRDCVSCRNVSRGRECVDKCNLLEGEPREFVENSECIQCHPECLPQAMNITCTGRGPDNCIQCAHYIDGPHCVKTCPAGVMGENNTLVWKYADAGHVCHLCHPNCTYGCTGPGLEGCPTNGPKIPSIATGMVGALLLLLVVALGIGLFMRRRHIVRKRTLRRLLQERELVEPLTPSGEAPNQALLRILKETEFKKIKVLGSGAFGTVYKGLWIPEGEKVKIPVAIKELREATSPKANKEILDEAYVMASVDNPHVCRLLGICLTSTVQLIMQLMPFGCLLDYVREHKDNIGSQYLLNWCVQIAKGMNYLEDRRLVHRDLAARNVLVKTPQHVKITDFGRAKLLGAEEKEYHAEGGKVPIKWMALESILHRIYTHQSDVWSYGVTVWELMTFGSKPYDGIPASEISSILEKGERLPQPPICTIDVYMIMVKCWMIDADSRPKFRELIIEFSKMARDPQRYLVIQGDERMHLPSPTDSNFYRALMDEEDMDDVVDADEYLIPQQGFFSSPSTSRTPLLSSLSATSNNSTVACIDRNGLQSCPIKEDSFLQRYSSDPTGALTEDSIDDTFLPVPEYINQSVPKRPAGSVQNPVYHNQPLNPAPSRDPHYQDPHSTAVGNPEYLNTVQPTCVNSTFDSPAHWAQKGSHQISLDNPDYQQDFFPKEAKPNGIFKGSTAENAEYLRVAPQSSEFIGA

SMILES	DC50 (Table 9B) [µM]	DC50 (Table 9A) [µM]
O=C1CCN(c2ccc(N3CCC(O)(CC(=O)N4CC5(CCN(c6ccc(-c7cc(F)c8c(c7)C(=O)N(C(C(=O)Nc7nccs7)c7ncn9c7CCC9)C8)cc6)CC5)C4)CC3)c(Cl)c2)C(=O)N1 (centres unmarked) [Compound 172, 2-[6-[4-[2-[2-[1-[2-chloro-4-(2,4-dioxohexahydropyrimidin-1-yl)phenyl]-4-hydroxy-4-piperidyl]acetyl]-2,7-diazaspiro[3.5]nonan-7-yl]phenyl]-4-fluoro-1-oxo-isoindolin-2-yl]-2-(6,7-dihydro-5H-pyrrolo[1,2-c]imidazol-1-yl)-N-thiazol-2-yl-acetamide]	< 0.05	
O=C1CCC(Nc2cnc(C3CCN(CC(=O)N4CC5(C4)CN(c4ccc(-c6cc(F)c7c(c6)C(=O)N(C(C(=O)Nc6nccs6)c6ncn8c6CCC8)C7)cc4)C5)CC3)c(F)c2)C(=O)N1 (centres unmarked) [Compound 112, 2-(6,7-dihydro-5H-pyrrolo[1,2-c]imidazol-1-yl)-2-(6-(4-(6-(2-(4-(5-((2,6-dioxopiperidin-3-yl)amino)-3-fluoropyridin-2-yl)piperidin-1-yl)acetyl)-2,6-diazaspiro[3.3]heptan-2-yl)phenyl)-4-fluoro-1-oxoisoindolin-2-yl)-N-(thiazol-2-yl)acetamide]	< 0.05	
O=C1CCN(c2ccc(N3CCC(O)(CC(=O)N4CC5(C4)CN(c4ccc(-c6cc(F)c7c(c6)C(=O)N(C(C(=O)Nc6nccs6)c6ncn8c6CCC8)C7)cc4)C5)CC3)c(F)c2)C(=O)N1 (centres unmarked) [Compound 156, 2-(6,7-dihydro-5H-pyrrolo[1,2-c]imidazol-1-yl)-2-[6-[4-[2-[2-[1-[4-(2,4-dioxohexahydropyrimidin-1-yl)-2-fluoro-phenyl]-4-hydroxy-4-piperidyl]acetyl]-2,6-diazaspiro[3.3]heptan-6-yl]phenyl]-4-fluoro-1-oxo-isoindolin-2-yl]-N-thiazol-2-yl-acetamide]	0.05 to 0.15	
O=C1CCC(Nc2cccc(C3CCN(CC(=O)N4CCN(c5ccc(-c6cc(F)c7c(c6)C(=O)N(C(C(=O)Nc6nccs6)c6ncn8c6CCC8)C7)cc5)CC4)CC3)c2)C(=O)N1 (centres unmarked) [Compound 16, 2-(6,7-dihydro-5H-pyrrolo[1,2-c]imidazol-1-yl)-2-(6-(4-(4-(2-(4-(3-((2,6-dioxopiperidin-3-yl)amino)phenyl)piperidin-1-yl)acetyl)piperazin-1-yl)phenyl)-4-fluoro-1-oxoisoindolin-2-yl)-N-(thiazol-2-yl)acetamide]		0.05 to 0.15
O=C1CCC(Nc2ccc(N3CCC(O)(CC(=O)N4CC5(C4)CN(c4ccc(-c6cc(F)c7c(c6)C(=O)N(C(C(=O)Nc6nccs6)c6ncn8c6CCC8)C7)cc4)C5)CC3)c(F)c2)C(=O)N1 (centres unmarked) [Compound 89, 2-(6,7-dihydro-5H-pyrrolo[1,2-c]imidazol-1-yl)-2-(6-(4-(6-(2-(1-(4-((2,6-dioxopiperidin-3-yl)amino)-2-fluorophenyl)-4-hydroxypiperidin-4-yl)acetyl)-2,6-diazaspiro[3.3]heptan-2-yl)phenyl)-4-fluoro-1-oxoisoindolin-2-yl)-N-(thiazol-2-yl)acetamide]	< 0.05	
O=C1CCC(Nc2ccc(C3CCN(CC(=O)N4CCN(c5ccc(-c6cc(F)c7c(c6)C(=O)N(C(C(=O)Nc6nccs6)c6ncn8c6CCC8)C7)cc5)CC4)CC3)cc2F)C(=O)N1 (centres unmarked) [Compound 13, 2-(6,7-dihydro-5H-pyrrolo[1,2-c]imidazol-1-yl)-2-[6-[4-[4-[2-[4-[4-[(2,6-dioxo-3-piperidyl)amino]-3-fluoro-phenyl]-1-piperidyl]acetyl]piperazin-1-yl]phenyl]-4-fluoro-1-oxo-isoindolin-2-yl]-N-thiazol-2-yl-acetamide]		0.05 to 0.15
O=C1CC[C@@H](Nc2ccc(N3CCC(O)(CC(=O)N4CCC(NC(=O)c5ccc(C#Cc6cc(F)c7c(c6)C(=O)N(C(C(=O)Nc6nccs6)c6ncn8c6C[C@@H](F)C8)C7)cn5)CC4)CC3)c(F)c2)C(=O)N1 (stereo partly drawn) [Compound 108, N-(1-(2-(1-(4-(((R)-2,6-dioxopiperidin-3-yl)amino)-2-fluorophenyl)-4-hydroxypiperidin-4-yl)acetyl)piperidin-4-yl)-5-((7-fluoro-2-(1-((R)-6-fluoro-6,7-dihydro-5H-pyrrolo[1,2-c]imidazol-1-yl)-2-oxo-2-(thiazol-2-ylamino)ethyl)-3-oxoisoindolin-5-yl)ethynyl)picolinamide]	< 0.05	
O=C1CCC(Nc2ccc(C3CCN(CC(=O)N4CCN(c5ccc(-c6cc(F)c7cn(C(C(=O)Nc8nccs8)c8ncn9c8CCC9)nc7c6)cn5)CC4)CC3)c(F)c2)C(=O)N1 (centres unmarked) [Compound 64, 2-(6,7-dihydro-5H-pyrrolo[1,2-c]imidazol-1-yl)-2-[6-[6-[4-[2-[4-[4-[(2,6-dioxo-3-piperidyl)amino]-2-fluoro-phenyl]-1-piperidyl]acetyl]piperazin-1-yl]-3-pyridyl]-4-fluoro-indazol-2-yl]-N-thiazol-2-yl-acetamide]		0.05 to 0.15
O=C1CCC(Nc2ccc(N3CCCC(O)(CC(=O)N4CC5(C4)CN(c4ccc(-c6cc(F)c7c(c6)C(=O)N(C(C(=O)Nc6nccs6)c6ncn8c6CCC8)C7)cc4)C5)CC3)c(F)c2)C(=O)N1 (single isomer, unassigned; isomer a1) [Compound 164, 2-(6,7-dihydro-5H-pyrrolo[1,2-c]imidazol-1-yl)-2-[6-[4-[2-[2-[1-[4-[[2,6-dioxo-3-piperidyl]amino]-2-fluoro-phenyl]-4-hydroxy-azepan-4-yl]acetyl]-2,6-diazaspiro[3.3]heptan-6-yl]phenyl]-4-fluoro-1-oxo-isoindolin-2-yl]-N-thiazol-2-yl-acetamide, isomer A1]	0.05 to 0.15	
N#Cc1cc(N2CCC(=O)NC2=O)ccc1N1CCC(O)(CC(=O)N2CC3(C2)CN(c2ccc(-c4cc(F)c5c(c4)C(=O)N(C(C(=O)Nc4nccs4)c4ncn6c4CCC6)C5)cc2)C3)CC1 (centres unmarked) [Compound 171, 2-[6-[4-[2-[2-[1-[2-cyano-4-(2,4-dioxohexahydropyrimidin-1-yl)phenyl]-4-hydroxy-4-piperidyl]acetyl]-2,6-diazaspiro[3.3]heptan-6-yl]phenyl]-4-fluoro-1-oxo-isoindolin-2-yl]-2-(6,7-dihydro-5H-pyrrolo[1,2-c]imidazol-1-yl)-N-thiazol-2-yl-acetamide]	> 0.15	
O=C1CCN(c2cc(Cl)c(N3CCC(O)(CC(=O)N4CC5(C4)CN(c4ccc(-c6cc(F)c7c(c6)C(=O)N(C(C(=O)Nc6nccs6)c6ncn8c6CCC8)C7)cc4)C5)CC3)c(Cl)c2)C(=O)N1 (centres unmarked) [Compound 169, 2-[6-[4-[2-[2-[1-[2,6-dichloro-4-(2,4-dioxohexahydropyrimidin-1-yl)phenyl]-4-hydroxy-4-piperidyl]acetyl]-2,6-diazaspiro[3.3]heptan-6-yl]phenyl]-4-fluoro-1-oxo-isoindolin-2-yl]-2-(6,7-dihydro-5H-pyrrolo[1,2-c]imidazol-1-yl)-N-thiazol-2-yl-acetamide]	< 0.05	
